Measurements from the supplement of paper PMC11451515.

Tests used:
Settings in all cases: 48 h
[1] = tested on: P12-Ichikawa; test: AUC of viability dose-response curve (% viability x log10 dose units); higher = less sensitive
Method in brief: (§1)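 Leukemia cells adapted to each medium were seeded in 1536-well plates (500 or 1000 cells/well) and given library compounds in DMSO for 48 h at 37°C. The 11 threefold doses spanned 47 μM to 0.79 nM, and CellTiter-Glo One luminescence was normalised per plate to DMSO and cell-free wells before four-parameter log-logistic fitting on log10 dose. Area under the curve was integrated with the trapezoidal rule, scaling curves above full viability and removing curves that failed quality control.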

[2] = tested on: NOMO1; test: as above
Method in brief: as §1

[3] = tested on: SEM cells; test: as above
Method in brief: as §1

[4] = tested on: P12-Ichikawa; test: cell viability relative to DMSO control; higher = less cytotoxic
Method in brief: (§2)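 Viability was expressed as a per-plate percentage of DMSO wells, with cell-free wells as background. Leukemia cells (NOMO1 or SEM at 500 cells/well, P12-Ichikawa at 1000 cells/well) were adapted for at least four passages in each medium and seeded in 1536-well plates (5 μl). Library compounds in DMSO were pin-dosed over an 11-point threefold series from 47 μM to 0.79 nM, and CellTiter-Glo One luminescence was read after 48 h at 37°C.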

[5] = tested on: NOMO1; test: as above
Method in brief: as §2

[6] = tested on: SEM cells; test: as above
Method in brief: as §2

[7] = RPMI 5 mM glucose + 10% dialyzed FBS
[8] = HPLM + 10% dialyzed FBS, 0.000781 µM
[9] = HPLM + 10% dialyzed FBS, 0.00234 µM
[10] = HPLM + 10% dialyzed FBS, 0.00702 µM
[11] = HPLM + 10% dialyzed FBS, 0.0211 µM
[12] = HPLM + 10% dialyzed FBS, 0.0632 µM
[13] = HPLM + 10% dialyzed FBS, 0.19 µM
[14] = HPLM + 10% dialyzed FBS, 0.569 µM
[15] = HPLM + 10% dialyzed FBS, 1.71 µM
[16] = HPLM + 10% dialyzed FBS, 5.12 µM
[17] = HPLM + 10% dialyzed FBS, 15.4 µM
[18] = HPLM + 10% dialyzed FBS, 46.1 µM
[19] = RPMI 5 mM glucose + 10% FBS, 0.000781 µM
[20] = RPMI 5 mM glucose + 10% FBS, 0.00234 µM
[21] = RPMI 5 mM glucose + 10% FBS, 0.00702 µM
[22] = RPMI 5 mM glucose + 10% FBS, 0.0211 µM
[23] = RPMI 5 mM glucose + 10% FBS, 0.0632 µM
[24] = RPMI 5 mM glucose + 10% FBS, 0.19 µM
[25] = RPMI 5 mM glucose + 10% FBS, 0.569 µM
[26] = RPMI 5 mM glucose + 10% FBS, 1.71 µM
[27] = RPMI 5 mM glucose + 10% FBS, 5.12 µM
[28] = RPMI 5 mM glucose + 10% FBS, 15.4 µM
[29] = RPMI 5 mM glucose + 10% FBS, 46.1 µM
[30] = RPMI 5 mM glucose + 10% dialyzed FBS, 0.000781 µM
[31] = RPMI 5 mM glucose + 10% dialyzed FBS, 0.00234 µM
[32] = RPMI 5 mM glucose + 10% dialyzed FBS, 0.00702 µM
[33] = RPMI 5 mM glucose + 10% dialyzed FBS, 0.0211 µM
[34] = RPMI 5 mM glucose + 10% dialyzed FBS, 0.0632 µM
[35] = RPMI 5 mM glucose + 10% dialyzed FBS, 0.19 µM
[36] = RPMI 5 mM glucose + 10% dialyzed FBS, 0.569 µM
[37] = RPMI 5 mM glucose + 10% dialyzed FBS, 1.71 µM
[38] = RPMI 5 mM glucose + 10% dialyzed FBS, 5.12 µM
[39] = RPMI 5 mM glucose + 10% dialyzed FBS, 15.4 µM
[40] = RPMI 5 mM glucose + 10% dialyzed FBS, 46.1 µM

Compound: Cc1ccc(C(=O)Nc2cccc(C(F)(F)F)c2)cc1-c1ccc2nc(NCCN3CCOCC3)ncc2c1
- AUC of viability dose-response curve ([1]; HPLM + 10% dialyzed FBS): 418
- AUC of viability dose-response curve ([1]; RPMI 5 mM glucose + 10% FBS): 408
- AUC of viability dose-response curve [1, 7]: 408
- AUC of viability dose-response curve ([2]; HPLM + 10% dialyzed FBS): 384
- AUC of viability dose-response curve ([2]; RPMI 5 mM glucose + 10% FBS): 388
- AUC of viability dose-response curve [2, 7]: 384
- AUC of viability dose-response curve ([3]; HPLM + 10% dialyzed FBS): 384
- AUC of viability dose-response curve ([3]; RPMI 5 mM glucose + 10% FBS): 378
- AUC of viability dose-response curve [3, 7]: 378
- cell viability [4, 8]: 110%
- cell viability [4, 9]: 111%
- cell viability [4, 10]: 112%
- cell viability [4, 11]: 111%
- cell viability [4, 12]: 116%
- cell viability [4, 13]: 109%
- cell viability [4, 14]: 107%
- cell viability [4, 15]: 92.6%
- cell viability [4, 16]: 85%
- cell viability [4, 17]: 64.2%
- cell viability [4, 18]: 42.6%
- cell viability [4, 19]: 105%
- cell viability [4, 20]: 106%
- cell viability [4, 21]: 119%
- cell viability [4, 22]: 115%
- cell viability [4, 23]: 113%
- cell viability [4, 24]: 111%
- cell viability [4, 25]: 113%
- cell viability [4, 26]: 109%
- cell viability [4, 27]: 62.2%
- cell viability [4, 28]: 50.3%
- cell viability [4, 29]: 31.7%
- cell viability [4, 30]: 110%
- cell viability [4, 31]: 107%
- cell viability [4, 32]: 107%
- cell viability [4, 33]: 105%
- cell viability [4, 34]: 116%
- cell viability [4, 35]: 107%
- cell viability [4, 36]: 103%
- cell viability [4, 37]: 92.5%
- cell viability [4, 38]: 73.7%
- cell viability [4, 39]: 49.3%
- cell viability [4, 40]: 30.5%
- cell viability [5, 8]: 128%
- cell viability [5, 9]: 122%
- cell viability [5, 10]: 111%
- cell viability [5, 11]: 118%
- cell viability [5, 12]: 118%
- cell viability [5, 13]: 126%
- cell viability [5, 14]: 117%
- cell viability [5, 15]: 108%
- cell viability [5, 16]: 50.7%
- cell viability [5, 17]: 29.5%
- cell viability [5, 18]: 10.8%
- cell viability [5, 19]: 115%
- cell viability [5, 20]: 106%
- cell viability [5, 21]: 125%
- cell viability [5, 22]: 113%
- cell viability [5, 23]: 123%
- cell viability [5, 24]: 114%
- cell viability [5, 25]: 116%
- cell viability [5, 26]: 103%
- cell viability [5, 27]: 57.3%
- cell viability [5, 28]: 32.7%
- cell viability [5, 29]: 10.3%
- cell viability [5, 30]: 129%
- cell viability [5, 31]: 116%
- cell viability [5, 32]: 115%
- cell viability [5, 33]: 124%
- cell viability [5, 34]: 118%
- cell viability [5, 35]: 113%
- cell viability [5, 36]: 114%
- cell viability [5, 37]: 102%
- cell viability [5, 38]: 54.2%
- cell viability [5, 39]: 33.4%
- cell viability [5, 40]: 11.6%
- cell viability [6, 8]: 115%
- cell viability [6, 9]: 118%
- cell viability [6, 10]: 118%
- cell viability [6, 11]: 122%
- cell viability [6, 12]: 107%
- cell viability [6, 13]: 109%
- cell viability [6, 14]: 114%
- cell viability [6, 15]: 101%
- cell viability [6, 16]: 51.3%
- cell viability [6, 17]: 31.6%
- cell viability [6, 18]: 8.49%
- cell viability [6, 19]: 105%
- cell viability [6, 20]: 113%
- cell viability [6, 21]: 112%
- cell viability [6, 22]: 125%
- cell viability [6, 23]: 116%
- cell viability [6, 24]: 114%
- cell viability [6, 25]: 110%
- cell viability [6, 26]: 103%
- cell viability [6, 27]: 41.6%
- cell viability [6, 28]: 15.7%
- cell viability [6, 29]: 7.56%
- cell viability [6, 30]: 109%
- cell viability [6, 31]: 101%
- cell viability [6, 32]: 94.5%
- cell viability [6, 33]: 97%
- cell viability [6, 34]: 124%
- cell viability [6, 35]: 92.8%
- cell viability [6, 36]: 117%
- cell viability [6, 37]: 97.3%
- cell viability [6, 38]: 35.8%
- cell viability [6, 39]: 15.9%
- cell viability [6, 40]: 6.55%

Compound: CCN(CC)CCOc1ccc(Cc2ccccc2)cc1
- AUC of viability dose-response curve ([1]; HPLM + 10% dialyzed FBS): 417
- AUC of viability dose-response curve ([1]; RPMI 5 mM glucose + 10% FBS): 446
- AUC of viability dose-response curve [1, 7]: 409
- AUC of viability dose-response curve ([2]; HPLM + 10% dialyzed FBS): 403
- AUC of viability dose-response curve ([2]; RPMI 5 mM glucose + 10% FBS): 431
- AUC of viability dose-response curve [2, 7]: 464
- AUC of viability dose-response curve ([3]; HPLM + 10% dialyzed FBS): 442
- AUC of viability dose-response curve ([3]; RPMI 5 mM glucose + 10% FBS): 380
- AUC of viability dose-response curve [3, 7]: 409
- cell viability [4, 8]: 103%
- cell viability [4, 9]: 104%
- cell viability [4, 10]: 102%
- cell viability [4, 11]: 101%
- cell viability [4, 12]: 98.9%
- cell viability [4, 13]: 103%
- cell viability [4, 14]: 105%
- cell viability [4, 15]: 95.4%
- cell viability [4, 16]: 85.2%
- cell viability [4, 17]: 29.8%
- cell viability [4, 18]: 22.8%
- cell viability [4, 19]: 101%
- cell viability [4, 20]: 95.9%
- cell viability [4, 21]: 95.1%
- cell viability [4, 22]: 95.9%
- cell viability [4, 23]: 99.4%
- cell viability [4, 24]: 98.5%
- cell viability [4, 25]: 102%
- cell viability [4, 26]: 93%
- cell viability [4, 27]: 85.7%
- cell viability [4, 28]: 77.6%
- cell viability [4, 29]: 79.3%
- cell viability [4, 30]: 87.1%
- cell viability [4, 31]: 96%
- cell viability [4, 32]: 86.5%
- cell viability [4, 33]: 97.8%
- cell viability [4, 34]: 93.4%
- cell viability [4, 35]: 89.8%
- cell viability [4, 36]: 99.5%
- cell viability [4, 37]: 93.1%
- cell viability [4, 38]: 92%
- cell viability [4, 39]: 52%
- cell viability [4, 40]: 34.4%
- cell viability [5, 8]: 97.9%
- cell viability [5, 9]: 102%
- cell viability [5, 10]: 113%
- cell viability [5, 11]: 92.9%
- cell viability [5, 12]: 110%
- cell viability [5, 13]: 106%
- cell viability [5, 14]: 113%
- cell viability [5, 15]: 102%
- cell viability [5, 16]: 74.1%
- cell viability [5, 17]: 21.2%
- cell viability [5, 18]: 14.2%
- cell viability [5, 19]: 92.2%
- cell viability [5, 20]: 92.2%
- cell viability [5, 21]: 94.2%
- cell viability [5, 22]: 106%
- cell viability [5, 23]: 102%
- cell viability [5, 24]: 91.8%
- cell viability [5, 25]: 101%
- cell viability [5, 26]: 91.6%
- cell viability [5, 27]: 83.4%
- cell viability [5, 28]: 68.3%
- cell viability [5, 29]: 57%
- cell viability [5, 30]: 99.1%
- cell viability [5, 31]: 96%
- cell viability [5, 32]: 108%
- cell viability [5, 33]: 108%
- cell viability [5, 34]: 97.8%
- cell viability [5, 35]: 108%
- cell viability [5, 36]: 97.9%
- cell viability [5, 37]: 108%
- cell viability [5, 38]: 97.5%
- cell viability [5, 39]: 91.4%
- cell viability [5, 40]: 78.3%
- cell viability [6, 8]: 102%
- cell viability [6, 9]: 101%
- cell viability [6, 10]: 110%
- cell viability [6, 11]: 88.4%
- cell viability [6, 12]: 92.2%
- cell viability [6, 13]: 102%
- cell viability [6, 14]: 104%
- cell viability [6, 15]: 89.4%
- cell viability [6, 16]: 87.1%
- cell viability [6, 17]: 75.9%
- cell viability [6, 18]: 46.6%
- cell viability [6, 19]: 107%
- cell viability [6, 20]: 98%
- cell viability [6, 21]: 98.9%
- cell viability [6, 22]: 102%
- cell viability [6, 23]: 95.5%
- cell viability [6, 24]: 102%
- cell viability [6, 25]: 91.9%
- cell viability [6, 26]: 88.4%
- cell viability [6, 27]: 44.9%
- cell viability [6, 28]: 11.8%
- cell viability [6, 29]: 9.79%
- cell viability [6, 30]: 108%
- cell viability [6, 31]: 102%
- cell viability [6, 32]: 101%
- cell viability [6, 33]: 113%
- cell viability [6, 34]: 93.8%
- cell viability [6, 35]: 110%
- cell viability [6, 36]: 104%
- cell viability [6, 37]: 101%
- cell viability [6, 38]: 85.1%
- cell viability [6, 39]: 19.4%
- cell viability [6, 40]: 16.9%
